From patent publication US5041567A, “Antibacterial monic acid derivatives” (Beecham Group plc, priority 1982, dated 1991)
Values after ≈ are worked out from the molar mass of the structure shown. Like-named read-outs stand apart in the source and are kept apart here.

How the values were obtained:
[1] = tested on: Strep. pyogenes R80/421-A; assay: MIC against human bacteria in vitro; type: cell-based; conditions: Streptococcus pyogenes; Strep. pyogenes R80/421-A; 5% chocolated horse blood agar, 18 hours; read-out: MIC
Staph. aureus W2827 = assay: MIC against human bacteria in vitro; type: cell-based; conditions: Staphylococcus aureus; Staph. aureus W2827; 5% chocolated horse blood agar, 18 hours; read-out: MIC
[2] = tested on: Haemophilus influenzae Wy21; assay: MIC against human bacteria in vitro; type: cell-based; conditions: Haemophilus influenzae Wy21; 5% chocolated horse blood agar, 18 hours; read-out: MIC
Sarcina lutea 8340 = assay: MIC against human bacteria in vitro; type: cell-based; conditions: Micrococcus luteus; Sarcina lutea 8340; 5% chocolated horse blood agar, 18 hours; read-out: MIC
[3] = tested on: Neisseria catarrhalis 1502; assay: MIC against human bacteria in vitro; type: cell-based; conditions: Neisseria catarrhalis 1502; 5% chocolated horse blood agar, 18 hours; read-out: MIC
E. coli E1 = assay: MIC against veterinary bacteria in vitro; conditions: Escherichia coli, E1, 18 h
Protocol: (§1) The activity of the compounds of the Examples against various veterinarily important bacteria, was assayed in vitro using two-fold serial dilutions in Diagnostic Sensitivity Test Agar inoculated with 10^4 organisms.

S. dublin S7 = assay: MIC against veterinary bacteria in vitro; conditions: Salmonella enterica, S7, 18 h
Protocol: as §1

E. coli NCTC 10418 [4] = assay: MIC against veterinary bacteria in vitro; conditions: Escherichia coli, NCTC10418, 18 h
Protocol: as §1

[5] = tested on: M. bovigenitalium ATCC 14173; assay: MIC against mycoplasma in vitro; type: cell-based; conditions: 144 h
M. suipneumoniae TAM 6N = assay: MIC against mycoplasma in vitro; type: cell-based; conditions: Mesomycoplasma hyopneumoniae, TAM6N, 144 h; M. suipneumoniae TAM 6N; 6 days, 37° C.; read-out: MIC
[6] = tested on: Staph. aureus 152 (pen. sens); assay: MIC against veterinary bacteria in vitro; conditions: Staphylococcus aureus, 18 h
Protocol: as §1

P. mirabilis 889 = assay: MIC against human bacteria in vitro; type: cell-based; conditions: Proteus mirabilis; P. mirabilis 889; 5% chocolated horse blood agar, 18 hours; read-out: MIC
M. suipneumoniae UCD 1 = assay: MIC against mycoplasma in vitro; type: cell-based; conditions: Mesomycoplasma hyopneumoniae, UCD1, 144 h; M. suipneumoniae UCD 1; 6 days, 37° C.; read-out: MIC
E. coli NCTC 10418 [7] = assay: MIC against human bacteria in vitro; type: cell-based; conditions: Escherichia coli, NCTC10418; E. coli NCTC 10418; agar with 5% chocolated horse blood, 18 hours, 37° C.; read-out: MIC
[8] = tested on: Ps. aeruginosa NCTC 10662; assay: MIC against human bacteria in vitro; type: cell-based; conditions: Pseudomonas aeruginosa, NCTC10662; Ps. aeruginosa NCTC 10662; 5% chocolated horse blood agar, 18 hours; read-out: MIC
[9] = tested on: Corynebacterium xerosis 9755; assay: MIC against human bacteria in vitro; type: cell-based; conditions: Corynebacterium xerosis 9755; 5% chocolated horse blood agar, 18 hours; read-out: MIC
Staph. aureus Russell = assay: MIC against human bacteria in vitro; type: cell-based; conditions: Staphylococcus aureus; Staph. aureus Russell; 5% chocolated horse blood agar, 18 hours; read-out: MIC
M. gallisepticum S6 = assay: MIC against mycoplasma in vitro; type: cell-based; conditions: Mycoplasmoides gallisepticum
Past. multocida PA2 = assay: MIC against veterinary bacteria in vitro; conditions: Pasteurella multocida, PA2, 18 h
Protocol: as §1

M. suipneumoniae MS 16 = assay: MIC against mycoplasma in vitro; type: cell-based; conditions: Mesomycoplasma hyopneumoniae, MS16, 144 h
M. dispar NCTC 10125 = assay: MIC against mycoplasma in vitro; type: cell-based; conditions: 144 h
Strep. pneumoniae CN33 = assay: MIC against human bacteria in vitro; type: cell-based; conditions: Streptococcus pneumoniae; Strep. pneumoniae CN33; 5% chocolated horse blood agar, 18 hours; read-out: MIC
[10] = tested on: M. suipneumoniae NCTC 10110; assay: MIC against mycoplasma in vitro; type: cell-based; conditions: Mesomycoplasma hyopneumoniae, NCTC10110, 144 h; M. suipneumoniae NCTC 10110; 6 days, 37° C.; read-out: MIC
M. suipneumoniae JF 435 = assay: MIC against mycoplasma in vitro; type: cell-based; conditions: Mesomycoplasma hyopneumoniae, JF435, 144 h; M. suipneumoniae JF 435; 6 days, 37° C.; read-out: MIC
Strep. agalactiae SPA1 = assay: MIC against veterinary bacteria in vitro; conditions: Streptococcus agalactiae, SPA1, 18 h
Protocol: as §1

Strep. agalactiae 2788-B = assay: MIC against human bacteria in vitro; type: cell-based; conditions: Streptococcus agalactiae; Strep. agalactiae 2788-B; 5% chocolated horse blood agar, 18 hours; read-out: MIC
M. hyorhinis ATCC 25021 = assay: MIC against mycoplasma in vitro; type: cell-based; conditions: Mesomycoplasma hyorhinis, ATCC25021, 144 h
[11] = tested on: Strep. suis (group D) SPS11; assay: MIC against veterinary bacteria in vitro; conditions: Streptococcus suis, 18 h
Protocol: as §1

[12] = tested on: M. suipneumoniae PW/C/210; assay: MIC against mycoplasma in vitro; type: cell-based; conditions: Mesomycoplasma hyopneumoniae, 144 h
M. suipneumoniae Str. 11 = assay: MIC against mycoplasma in vitro; type: cell-based; conditions: Mesomycoplasma hyopneumoniae, 144 h; M. suipneumoniae Str. 11; 6 days, 37° C.; read-out: MIC
Staph. aureus Oxford = assay: MIC against human bacteria in vitro; type: cell-based; conditions: Staphylococcus aureus; Staph. aureus Oxford; 5% chocolated horse blood agar, 18 hours; read-out: MIC
M. suipneumoniae NB12 = assay: MIC against mycoplasma in vitro; type: cell-based; conditions: Mesomycoplasma hyopneumoniae, 144 h; M. suipneumoniae NB12; Friis broth, 0.9% agarose, 6 days, 37° C.; read-out: MIC
[13] = tested on: M. suipneumoniae ATCC 25095; assay: MIC against mycoplasma in vitro; type: cell-based; conditions: Mesomycoplasma hyopneumoniae, ATCC25095, 144 h; M. suipneumoniae ATCC 25095; 6 days, 37° C.; read-out: MIC
Past. multocida PA1 = assay: MIC against veterinary bacteria in vitro; conditions: Pasteurella multocida, PA1, 18 h
Protocol: as §1

Past. haemolytica PA5 = assay: MIC against veterinary bacteria in vitro; conditions: Mannheimia haemolytica, PA5, 18 h
Protocol: as §1

| SMILES | MIC [1] [µg/mL] | MIC (Staph. aureus W2827) [µg/mL] | MIC [2] [µg/mL] | MIC (Sarcina lutea 8340) [µg/mL] | MIC [3] [µg/mL] | MIC (E. coli E1) [µg/mL] | MIC (S. dublin S7) [µg/mL] | MIC (E. coli NCTC 10418 [4]) [µg/mL] | MIC (M. suipneumoniae TAM 6N) [µg/mL] | MIC [6] [µg/mL] | MIC (P. mirabilis 889) [µg/mL] | MIC (M. suipneumoniae UCD 1) [µg/mL] | MIC (E. coli NCTC 10418 [7]) [µg/mL] | MIC [8] [µg/mL] | MIC [9] [µg/mL] | MIC (Staph. aureus Russell) [µg/mL] | MIC (Past. multocida PA2) [µg/mL] | MIC (Strep. pneumoniae CN33) [µg/mL] | MIC [10] [µg/mL] | MIC (M. suipneumoniae JF 435) [µg/mL] | other results |
| --- | --- | --- | --- | --- | --- | --- | --- | --- | --- | --- | --- | --- | --- | --- | --- | --- | --- | --- | --- | --- | --- |
| C/C(=C\c1ncc(-c2ccc(C=O)cc2)o1)C[C@@H]1OC[C@H](C[C@@H]2O[C@H]2[C@@H](C)[C@H](C)O)[C@@H](O)[C@H]1O [Example 15, 5-p-Formylphenyl-2-(1-normon-2-yl) oxazole A] | 8 (≈ 17 µM) | 8 (≈ 17 µM) | 4 (≈ 8.48 µM) | > 128 | 4 (≈ 8.48 µM) | > 80 | > 80 | > 80 | 0.5 (≈ 1.06 µM) | 0.625 (≈ 1.33 µM) | > 128 | 0.5 (≈ 1.06 µM) | > 128 | > 128 | > 128 | 8 (≈ 17 µM) | < 0.039 | 8 (≈ 17 µM) | 0.5 (≈ 1.06 µM) | 0.5 (≈ 1.06 µM) | MIC [5]: 0.05 µg/mL (≈ 0.106 µM); MIC (M. gallisepticum S6; S6, 144 h): 1 µg/mL (≈ 2.12 µM); MIC (M. suipneumoniae MS 16): 0.25 µg/mL (≈ 0.53 µM); MIC (M. dispar NCTC 10125): 0.1 µg/mL (≈ 0.212 µM); MIC (Strep. agalactiae SPA1): 1.25 µg/mL (≈ 2.65 µM); MIC (Strep. agalactiae 2788-B): 8 µg/mL (≈ 17 µM); MIC (M. hyorhinis ATCC 25021): 0.25 µg/mL (≈ 0.53 µM); MIC [11]: 20 µg/mL (≈ 42.4 µM); MIC [12]: 0.25 µg/mL (≈ 0.53 µM); MIC (M. suipneumoniae Str. 11): 0.5 µg/mL (≈ 1.06 µM); MIC (Staph. aureus Oxford): 2 µg/mL (≈ 4.24 µM); MIC (M. suipneumoniae NB12): 0.5 µg/mL (≈ 1.06 µM); MIC [13]: 0.5 µg/mL (≈ 1.06 µM); MIC (Past. multocida PA1): 10 µg/mL (≈ 21.2 µM); MIC (Past. haemolytica PA5): 80 µg/mL (≈ 170 µM) |
| COC(=O)c1ccc(-c2cnc(/C=C(\C)C[C@@H]3OC[C@H](C[C@@H]4O[C@H]4[C@@H](C)[C@H](C)O)[C@@H](O)[C@H]3O)o2)cc1 [Example 16, 5-p-Methoxycarbonylphenyl-2-(1-normon-2-yl) oxazole A] | 4 (≈ 7.97 µM) | 4 (≈ 7.97 µM) | 2 (≈ 3.99 µM) | > 64 | 8 (≈ 15.9 µM) | > 80 | > 80 | > 80 | 0.5 (≈ 0.997 µM) | 1.25 (≈ 2.49 µM) | > 64 | 0.5 (≈ 0.997 µM) | > 64 | > 64 | > 64 | 4 (≈ 7.97 µM) | < 0.039 | 4 (≈ 7.97 µM) | 0.5 (≈ 0.997 µM) | 0.5 (≈ 0.997 µM) | MIC ([5]; M. bovigenitalium ATCC 14173, 6 days, 37° C., read-out: MIC): 0.1 µg/mL (≈ 0.199 µM); MIC (M. gallisepticum S6; 144 h, M. gallisepticum S6, 6 days, 37° C., read-out: MIC): 2.5 µg/mL (≈ 4.98 µM); MIC (M. suipneumoniae MS 16; M. suipneumoniae MS 16, 6 days, 37° C., read-out: MIC): 0.25 µg/mL (≈ 0.498 µM); MIC (M. dispar NCTC 10125; M. dispar NCTC 10125, 6 days, 37° C., read-out: MIC): 0.1 µg/mL (≈ 0.199 µM); MIC (Strep. agalactiae SPA1): 1.25 µg/mL (≈ 2.49 µM); MIC (Strep. agalactiae 2788-B): 4 µg/mL (≈ 7.97 µM); MIC (M. hyorhinis ATCC 25021; M. hyorhinis ATCC 25021, 6 days, 37° C., read-out: MIC): 0.25 µg/mL (≈ 0.498 µM); MIC [11]: 20 µg/mL (≈ 39.9 µM); MIC ([12]; M. suipneumoniae PW/C/210, 6 days, 37° C., read-out: MIC): 0.25 µg/mL (≈ 0.498 µM); MIC (M. suipneumoniae Str. 11): 0.25 µg/mL (≈ 0.498 µM); MIC (Staph. aureus Oxford): 4 µg/mL (≈ 7.97 µM); MIC (M. suipneumoniae NB12): 0.5 µg/mL (≈ 0.997 µM); MIC [13]: 0.25 µg/mL (≈ 0.498 µM); MIC (Past. multocida PA1): 40 µg/mL (≈ 79.7 µM); MIC (Past. haemolytica PA5): > 80 µg/mL |
